Consider 26 molecules from patent US20260132126A1, “IMIDAZOLE DERIVATIVES” (SANWA KAGAKU KENKYUSHO CO., LTD., priority 2022, published 2026).

The target of the test is T1, human α1A adrenergic receptor (Homo sapiens, UniProt P35348).
T1 construct: host or cells: GeneBLAzer ADRA1A-NFAT-bla CHO-K1 cells
T1 sequence (P35348 1-466): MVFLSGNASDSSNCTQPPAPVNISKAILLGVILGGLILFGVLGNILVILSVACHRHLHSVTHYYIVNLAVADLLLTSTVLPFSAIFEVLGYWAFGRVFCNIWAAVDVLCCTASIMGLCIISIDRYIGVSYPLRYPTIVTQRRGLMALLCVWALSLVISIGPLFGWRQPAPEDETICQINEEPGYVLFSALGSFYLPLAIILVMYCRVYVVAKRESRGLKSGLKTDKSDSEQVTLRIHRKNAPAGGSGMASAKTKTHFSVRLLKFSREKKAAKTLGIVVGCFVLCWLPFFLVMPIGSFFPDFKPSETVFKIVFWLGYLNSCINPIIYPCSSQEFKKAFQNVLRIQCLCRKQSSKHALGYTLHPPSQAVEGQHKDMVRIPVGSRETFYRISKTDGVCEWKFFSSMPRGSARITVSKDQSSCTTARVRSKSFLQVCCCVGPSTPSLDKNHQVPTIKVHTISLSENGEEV
In words: Ca2+ mobilization assay in human α1A adrenergic receptor-expressing cells. The format is cell-based. The arrangement: Emax: dose or concentration left out as unconfirmed. As to conditions: for Emax at 10 µM: % activation at 10 μmol/L test compound, 100 μmol/L norepinephrine = 100%, well without test compound = 0%; for EC50: CHO-K1 cells expressing human α1A adrenergic receptor, Fluo-4 fluorescence, concentration giving 50% response of Emax, 4-parameter logistic regression. How it is done:
CHO-K1 cells that highly express a human α1A adrenergic receptor (GeneBLAzer™ ADRA1A-NFAT-bla CHO-K1 Cells) were purchased from Thermo Fisher Scientific, Inc., and cultured according to the instructions.
The cultured human α1A adrenergic receptor-expressing cells were washed with D-PBS, then replaced with a loading buffer (2 μmol/L Fluo-4/AM, 1× PowerLoad, 2.5 mmol/L Probenecid-containing DMEM (high-glucose)) and incubated at 37° C. for 60 minutes in a 5% CO2 incubator. The cells were detached using 0.05% trypsin-EDTA solution, and suspended in an assay buffer ([…], 0.054 mol/L KCl, 1.8 mmol/L CaCl2), 1 mmol/L MgSO4, 0.11 mol/L glucose, 0.01 mol/L NaH2PO4·2H2O, […], pH 7.3) to be 500,000 cells/mL.
Test compounds were dissolved in dimethylsulfoxide, and diluted with an assay buffer containing 0.3% BSA. The final concentrations of the test compounds were set to fall within the range of 0.1 nmol/L to 10 μmol/L. As a reference compound, norepinephrine was set to have a final concentration within the range of 0.01 nmol/L to 100 μmol/L.
On a 384-well clear bottom black plate coated with poly-D-lysine (Corning Inc.), the above-described cell-suspended solution was dispersed in 40 μL each (20,000 cells/well) and allowed to stand for 10 minutes. The plate was transferred to a fluorescent imaging plate reader (FDSS7000, Hamamatsu Photonics K.K.), and measurements were started. After 1 minute from the start of the measurements, 20 μL of the test compound solutions or norepinephrine solution (total amount: 60 μL/well) was added to each well of the plate (final concentration: 0.1% BSA, 0.1% dimethylsulfoxide), and the temporal change in fluorescence intensity of Fluo-4 was further measured for 5 minutes (Ex 480 nm/Em 540 nm).
The normalized values (% activation) were used for subsequent analyses.
Emax values and EC50 values were calculated by creating a concentration-response curve of the test compounds using a 4-parameter logistic regression with XLFit, Emax value being defined as % activation of test compound at the concentration of 10 μmol/L, and EC50 value being defined as the concentration in which 50% response of the Emax values is shown.

As usually defined, the Emax is the maximal effect, on the per cent scale that the assay sets. The term EC50 denotes the midpoint of the concentration-response curve. As for `Cc1cccnc1-c1cscc1NCc1c[nH]cn1` [Example 16, N-((1H-imidazol-4-yl)methyl)-4-(3-methylpyridin-2-yl)thiophen-3-amine], the maximum response (Emax) at 10 µM was 88% and the EC50 was 9.6 nM.

On to `c1ccc(-c2cnccn2)c(NCc2c[nH]cn2)c1` [Example 26, N-((1H-imidazol-4-yl)methyl)-2-(pyrazin-2-yl)aniline], for which the Emax at 10 µM amounted to 105% and a half-maximal effect (EC50) was put at 1.2 nM.

With `c1ccc(-c2cscn2)c(OCc2c[nH]cn2)c1` [Example 67, 4-(2-((1H-Imidazol-4-yl)methoxy)phenyl)thiazole], the Emax at 10 µM is 103% and the EC50 stood at 2.1 nM.

In turn, `COc1n[nH]cc1-c1ccc(F)cc1NCc1c[nH]cn1` [Example 34, N-((1H-imidazol-4-yl)methyl)-5-fluoro-2-(3-methoxy-1H-pyrazol-4-yl)aniline] had an Emax at 10 µM of 91% and an EC50 of 1.3 nM.

`CC(Oc1ccccc1-c1cccs1)c1c[nH]cn1` (single isomer, unassigned; (+)) [Example 79, (+)-4-(1-(2-(Thiophen-2-yl)phenoxy)ethyl)-1H-imidazole] had an Emax at 10 µM of 108% and a concentration for a half-maximal effect (EC50) of 4.5 nM.

`COc1ccncc1-c1ccc(F)cc1OCc1c[nH]cn1` [Example 63] came in with a maximal effect (Emax) at 10 µM of 92% and an EC50 of 0.7 nM.

Molecule `COc1cccc(-c2cscc2NCc2c[nH]cn2)n1` [Example 22, N-((1H-imidazol-4-yl)methyl)-4-(6-methoxypyridin-2-yl)thiophen-3-amine] yielded an Emax at 10 µM of 88% and an EC50 of 1.2 nM.

`COc1cccc(-c2ccccc2NCc2c[nH]cn2)n1` [Example 32, N-((1H-imidazol-4-yl)methyl)-2-(6-methoxypyridin-2-yl)aniline] yielded an Emax at 10 µM of 100% and an EC50 of 1.1 nM.

On to `Cc1ccc(-c2cncnc2C)c(NCc2c[nH]cn2)c1` [Example 20, N-((1H-imidazol-4-yl)methyl)-5-methyl-2-(4-methylpyrimidin-5-yl)aniline], for which the maximal effect (Emax) at 10 µM was 91% and the concentration for a half-maximal effect (EC50) stood at 2.4 nM.

The molecule `Cc1ccc(-c2cncnc2C)c(OCc2c[nH]cn2)c1` [Example 65] displayed an Emax at 10 µM of 98% and an EC50 of 6.7 nM.

`CC(Nc1ccccc1-c1cccnc1)c1c[nH]cn1` (single isomer, unassigned; (+)) [Example 36, (+)-N-(1-(1H-Imidazol-4-yl)ethyl)-2-(pyridin-3-yl)aniline] registered an Emax at 10 µM of 86% and an EC50 of 3.7 nM.

As to `c1ccc(-c2cscn2)c(NCc2c[nH]cn2)c1` [Example 15, N-((1H-imidazol-4-yl)methyl)-2-(thiazol-4-yl)aniline], the Emax at 10 µM was 98% and the response was half-maximal at 0.1 nM (EC50).

On to `Cc1ncncc1-c1ccccc1OCc1c[nH]cn1` [Example 76], for which the Emax stood at 98% and it took 3.3 nM to reach a half-maximal effect (EC50).

In the case of `COc1cncc(-c2ccccc2OCc2c[nH]cn2)n1` [Example 77], the Emax is 92% and the EC50 stood at 0.6 nM.

Take `c1csc(-c2sccc2NCc2c[nH]cn2)c1` [Example 2, N-((1H-imidazol-4-yl)methyl)-[2,2′-bithiophen]-3-amine]: the maximal response (Emax) at 10 µM worked out at 105% and the EC50 stood at 0.9 nM.

In the case of `c1ccc(-c2cncnc2)c(OCc2c[nH]cn2)c1` [Example 69], the maximal effect (Emax) was determined as 104% and the EC50 turned out to be 0.9 nM.

Regarding `Cc1n[nH]cc1-c1ccccc1OCc1c[nH]cn1` [Example 49], the Emax at 10 µM came to 104% and it took 4.3 nM to reach a half-maximal effect (EC50).

Turning to `c1ccc(-c2cn[nH]c2)c(OCc2c[nH]cn2)c1` [Example 47, 4-(2-((1H-imidazol-4-yl)methoxy)phenyl)-1H-pyrazole], the Emax at 10 µM was 95% and the midpoint of the response, the EC50, lay at 9.9 nM.

`c1ccc(-c2cncs2)c(NCc2c[nH]cn2)c1` [Example 11, N-((1H-imidazol-4-yl)methyl)-2-(thiazol-5-yl)aniline] returned an Emax at 10 µM of 104% and a half-maximal effective concentration (EC50) of 1.8 nM.

In turn, `c1csc(-c2cscc2NCc2c[nH]cn2)c1` [Example 1] had an Emax at 10 µM of 103% and an EC50 of 0.8 nM.

For `COc1ncccc1-c1ccccc1OCc1c[nH]cn1` [Example 52], the Emax at 10 µM came out at 90% and it took 2.7 nM to reach a half-maximal effect (EC50).

Molecule `Cc1ncncc1-c1ccc(F)cc1OCc1c[nH]cn1` [Example 64] displayed an Emax at 10 µM of 99% and an EC50 of 5.3 nM.

`c1ccc(-c2cnco2)c(NCc2c[nH]cn2)c1` [compound 1, N-((1H-imidazol-4-yl)methyl)-2-(oxazol-5-yl) aniline, reference compound] yielded an Emax at 10 µM of 91% and an EC50 of 20 nM.

`Fc1cncc(-c2cscc2NCc2c[nH]cn2)c1` [Example 6, N-((1H-imidazol-4-yl)methyl)-4-(5-fluoropyridin-3-yl)thiophen-3-amine] showed a maximum response (Emax) at 10 µM of 92% and a concentration giving a half-maximal response (EC50) of 1.1 nM.

For the molecule `COc1cncc(-c2cscc2NCc2c[nH]cn2)n1` [Example 31, N-((1H-imidazol-4-yl)methyl)-4-(6-methoxypyrazin-2-yl)thiophen-3-amine], the maximal response (Emax) at 10 µM worked out at 103% and a half-maximal effect (EC50) was put at 0.8 nM.

In turn, `c1nc(CNc2cscc2-c2ccoc2)c[nH]1` [Example 41, N-((1H-Imidazol-4-yl)methyl)-4-(furan-3-yl)thiophen-3-amine] showed an Emax at 10 µM of 92% and an EC50 of 3.4 nM.
